The target of data set [1] is T1, RyR2 (Mus musculus, UniProt E9Q401).
T1 construct: other: cells derived from a CPVT mouse model (R176Q/+ ventricular myocyte)
The data set is described as follows: Ca2+ spark frequency assay in ventricular myocytes from CPVT mouse model (R176Q/+). The following applies: cells derived from a CPVT mouse model (R176Q/+ ventricular myocytes); read-out: IC50 (inhibition of calcium spark frequency). The data set is classed as cell-based. The text has this: (§1) Therein, calcium spark frequency data are shown in the presence of increasing amounts of added compound. IC50 is a measure of the effectiveness of a substance in inhibiting a particular biological process or function. Calcium spark frequency is plotted along the y-axis and compound concentration is plotted along the x-axis. Example dose-response curve 120 is included to illustrate the inhibitory effect of Compound 1 on spark frequency for the cells derived from a CPVT mouse model. The quantitative value of IC50 can be determined by identifying the concentration where half of the maximum biological response, such as the calcium spark response, is inhibited. For example, at lower compound concentrations dose-response curve 110 has a higher level of calcium spark frequency, whereas at higher compound concentrations, a transition of the calcium spark frequency to a lower level is observed. The concentration at which the sigmoidal curve of data response curve 120 has a spark frequency reduced by half corresponds to the IC50. […] Thus, as one example, a method for treating cardiac arrhythmias may include administering an amount of Compound 1 to a subject afflicted with heart arrhythmias. The administration may be performed via known routes, such as oral, epidermal, subcutaneous, intravenous, peritoneal, etc.
(§2) Functional Assays in CPVT mouse cells may include isolating ventricular cardiomyocytes from adult (2-3 month-old) R176Q/+ mice or WT littermates. In one exemplary assay, myocytes were loaded with 2 μM Fluo-4-AM in a normal Tyrode solution containing 1.8 mM Ca2+ for 30 minutes at room temperature before washing the cells with Tyrode solution for 15 minutes for de-esterification and transfering to a chamber equipped with parallel platinum electrodes.
(§3) After baseline measurements were completed, myocytes were exposed to the test lead compound. After a 5 min superfusion period, Ca2+ sparks were again measured in the same cell in the presence of the drug compound. The frequency of Ca2+ sparks (CaSpF) were calculated, e.g., using SparkMaster (Picht, E., et al., SparkMaster: automated calcium spark analysis with ImageJ. Am J Physiol Cell Physiol, 2007. 293(3): p. C1073-81), and applications before and after inclusion of the test compound were compared. A detailed dose-response relationship and measurements of inhibition of arrhythmogenic Ca2+ waves in ventricular myocytes from a CPVT mouse model (R176Q/+) were then completed on those compounds showing a significant decrease in spark frequency at 0.5 μM. At the conclusion of these experiments, the Ca2+ spark inhibition rate is calculated as a function of concentration for each compound tested, and an IC50 value determined for each drug compound. […] FIG. 4 compares an exemplary confocal line-scan image of Ca2+ spark recordings from ventricular myocytes isolated from wild-type (WT) mice at 410 relative to those isolated from S2814D mice as shown at 420.
(§4) The above-discussed Ca2+ spark assay was used with R176Q/+ myocytes as an initial screening assay to test the ability of new compounds to inhibit spontaneous pathological SR Ca2+ release in ventricular myocytes.

Data set [2] concerns RyR2. The data set is described as above. The data set is classed as cell-based. The following applies: versus tetracaine.
Text: as §1, §2, §3, §4

Another data set relates to R176Q/+ mice. The data set is described as follows: Arrhythmias (ventricular tachycardia) after cardiac pacing / programmed electrical stimulation in CPVT mice, whole animal level. The data set is classed as in vivo, mouse. The text has this: Ventricular tachycardia (or VT) is a type of tachycardia, or a rapid heart beat that arises from improper electrical activity of the heart that presents as a rapid heart rhythm. VT is associated with the bottom chambers of the heart, called the ventricles, which are pumping chambers of the heart. […] Therein, electrical signals for four different CPVT mice are shown. Wild type (or WT) signal 210 is provided for reference to illustrate a sinus rhythm (e.g., L2-ECG, lead 2 of the surface ECG). Atrial and ventricular intracardiac electrocardiogram signals are also provided for reference.

Another data set concerns the target SERCA2 (Homo sapiens, UniProt P16615). The data set is described as follows: ATPase activity of SERCA2 versus concentration. Type of data set: biochemical. On the procedure: (§5) For example, the concentration of lead compound Compound 1 that suppressed ventricular tachycardia is approximately 0.5% of compound K201 (JTV519) that was previously used to inhibit arrhythmias in a similar mouse model. […] Therefore, advantages exist with regard to reduction of dosage response time compared to previously used drugs to inhibit arrhythmias. […] While Compound 1 inhibits sparks and arrhythmias at 35 nM, the ATPase activity of SERCA2 has been measured versus concentration of Compound 1. At concentrations of 1 μM, 10 μM and 50 μM, ATPase activity was unaffected (data not shown). The data shown in FIGS. 2 and 3 have been repeated several times with different animals (e.g., rabbit model).

Data set [3] is described as follows: Effect on the length of the AP. How it is done:
as §5

A short description of data set [4]: in vitro. The following applies: human.
Data set [5] in a line: in vitro. The following applies: human. The source holds these as a separate data set.
For another data set, the target named is RyR (Oryctolagus cuniculus, UniProt P11716). Conditions: literature value; cited from earlier work.
A short description of a further data set: Cytotoxicity in HepG2. Conditions: human, HepG2 cells.
A further data set in a line: Cytotoxicity in HEK293. The following applies: human, HEK293 cells.

Some results are limits rather than exact numbers.

T1 sequence (E9Q401 whole entry R176Q, form open): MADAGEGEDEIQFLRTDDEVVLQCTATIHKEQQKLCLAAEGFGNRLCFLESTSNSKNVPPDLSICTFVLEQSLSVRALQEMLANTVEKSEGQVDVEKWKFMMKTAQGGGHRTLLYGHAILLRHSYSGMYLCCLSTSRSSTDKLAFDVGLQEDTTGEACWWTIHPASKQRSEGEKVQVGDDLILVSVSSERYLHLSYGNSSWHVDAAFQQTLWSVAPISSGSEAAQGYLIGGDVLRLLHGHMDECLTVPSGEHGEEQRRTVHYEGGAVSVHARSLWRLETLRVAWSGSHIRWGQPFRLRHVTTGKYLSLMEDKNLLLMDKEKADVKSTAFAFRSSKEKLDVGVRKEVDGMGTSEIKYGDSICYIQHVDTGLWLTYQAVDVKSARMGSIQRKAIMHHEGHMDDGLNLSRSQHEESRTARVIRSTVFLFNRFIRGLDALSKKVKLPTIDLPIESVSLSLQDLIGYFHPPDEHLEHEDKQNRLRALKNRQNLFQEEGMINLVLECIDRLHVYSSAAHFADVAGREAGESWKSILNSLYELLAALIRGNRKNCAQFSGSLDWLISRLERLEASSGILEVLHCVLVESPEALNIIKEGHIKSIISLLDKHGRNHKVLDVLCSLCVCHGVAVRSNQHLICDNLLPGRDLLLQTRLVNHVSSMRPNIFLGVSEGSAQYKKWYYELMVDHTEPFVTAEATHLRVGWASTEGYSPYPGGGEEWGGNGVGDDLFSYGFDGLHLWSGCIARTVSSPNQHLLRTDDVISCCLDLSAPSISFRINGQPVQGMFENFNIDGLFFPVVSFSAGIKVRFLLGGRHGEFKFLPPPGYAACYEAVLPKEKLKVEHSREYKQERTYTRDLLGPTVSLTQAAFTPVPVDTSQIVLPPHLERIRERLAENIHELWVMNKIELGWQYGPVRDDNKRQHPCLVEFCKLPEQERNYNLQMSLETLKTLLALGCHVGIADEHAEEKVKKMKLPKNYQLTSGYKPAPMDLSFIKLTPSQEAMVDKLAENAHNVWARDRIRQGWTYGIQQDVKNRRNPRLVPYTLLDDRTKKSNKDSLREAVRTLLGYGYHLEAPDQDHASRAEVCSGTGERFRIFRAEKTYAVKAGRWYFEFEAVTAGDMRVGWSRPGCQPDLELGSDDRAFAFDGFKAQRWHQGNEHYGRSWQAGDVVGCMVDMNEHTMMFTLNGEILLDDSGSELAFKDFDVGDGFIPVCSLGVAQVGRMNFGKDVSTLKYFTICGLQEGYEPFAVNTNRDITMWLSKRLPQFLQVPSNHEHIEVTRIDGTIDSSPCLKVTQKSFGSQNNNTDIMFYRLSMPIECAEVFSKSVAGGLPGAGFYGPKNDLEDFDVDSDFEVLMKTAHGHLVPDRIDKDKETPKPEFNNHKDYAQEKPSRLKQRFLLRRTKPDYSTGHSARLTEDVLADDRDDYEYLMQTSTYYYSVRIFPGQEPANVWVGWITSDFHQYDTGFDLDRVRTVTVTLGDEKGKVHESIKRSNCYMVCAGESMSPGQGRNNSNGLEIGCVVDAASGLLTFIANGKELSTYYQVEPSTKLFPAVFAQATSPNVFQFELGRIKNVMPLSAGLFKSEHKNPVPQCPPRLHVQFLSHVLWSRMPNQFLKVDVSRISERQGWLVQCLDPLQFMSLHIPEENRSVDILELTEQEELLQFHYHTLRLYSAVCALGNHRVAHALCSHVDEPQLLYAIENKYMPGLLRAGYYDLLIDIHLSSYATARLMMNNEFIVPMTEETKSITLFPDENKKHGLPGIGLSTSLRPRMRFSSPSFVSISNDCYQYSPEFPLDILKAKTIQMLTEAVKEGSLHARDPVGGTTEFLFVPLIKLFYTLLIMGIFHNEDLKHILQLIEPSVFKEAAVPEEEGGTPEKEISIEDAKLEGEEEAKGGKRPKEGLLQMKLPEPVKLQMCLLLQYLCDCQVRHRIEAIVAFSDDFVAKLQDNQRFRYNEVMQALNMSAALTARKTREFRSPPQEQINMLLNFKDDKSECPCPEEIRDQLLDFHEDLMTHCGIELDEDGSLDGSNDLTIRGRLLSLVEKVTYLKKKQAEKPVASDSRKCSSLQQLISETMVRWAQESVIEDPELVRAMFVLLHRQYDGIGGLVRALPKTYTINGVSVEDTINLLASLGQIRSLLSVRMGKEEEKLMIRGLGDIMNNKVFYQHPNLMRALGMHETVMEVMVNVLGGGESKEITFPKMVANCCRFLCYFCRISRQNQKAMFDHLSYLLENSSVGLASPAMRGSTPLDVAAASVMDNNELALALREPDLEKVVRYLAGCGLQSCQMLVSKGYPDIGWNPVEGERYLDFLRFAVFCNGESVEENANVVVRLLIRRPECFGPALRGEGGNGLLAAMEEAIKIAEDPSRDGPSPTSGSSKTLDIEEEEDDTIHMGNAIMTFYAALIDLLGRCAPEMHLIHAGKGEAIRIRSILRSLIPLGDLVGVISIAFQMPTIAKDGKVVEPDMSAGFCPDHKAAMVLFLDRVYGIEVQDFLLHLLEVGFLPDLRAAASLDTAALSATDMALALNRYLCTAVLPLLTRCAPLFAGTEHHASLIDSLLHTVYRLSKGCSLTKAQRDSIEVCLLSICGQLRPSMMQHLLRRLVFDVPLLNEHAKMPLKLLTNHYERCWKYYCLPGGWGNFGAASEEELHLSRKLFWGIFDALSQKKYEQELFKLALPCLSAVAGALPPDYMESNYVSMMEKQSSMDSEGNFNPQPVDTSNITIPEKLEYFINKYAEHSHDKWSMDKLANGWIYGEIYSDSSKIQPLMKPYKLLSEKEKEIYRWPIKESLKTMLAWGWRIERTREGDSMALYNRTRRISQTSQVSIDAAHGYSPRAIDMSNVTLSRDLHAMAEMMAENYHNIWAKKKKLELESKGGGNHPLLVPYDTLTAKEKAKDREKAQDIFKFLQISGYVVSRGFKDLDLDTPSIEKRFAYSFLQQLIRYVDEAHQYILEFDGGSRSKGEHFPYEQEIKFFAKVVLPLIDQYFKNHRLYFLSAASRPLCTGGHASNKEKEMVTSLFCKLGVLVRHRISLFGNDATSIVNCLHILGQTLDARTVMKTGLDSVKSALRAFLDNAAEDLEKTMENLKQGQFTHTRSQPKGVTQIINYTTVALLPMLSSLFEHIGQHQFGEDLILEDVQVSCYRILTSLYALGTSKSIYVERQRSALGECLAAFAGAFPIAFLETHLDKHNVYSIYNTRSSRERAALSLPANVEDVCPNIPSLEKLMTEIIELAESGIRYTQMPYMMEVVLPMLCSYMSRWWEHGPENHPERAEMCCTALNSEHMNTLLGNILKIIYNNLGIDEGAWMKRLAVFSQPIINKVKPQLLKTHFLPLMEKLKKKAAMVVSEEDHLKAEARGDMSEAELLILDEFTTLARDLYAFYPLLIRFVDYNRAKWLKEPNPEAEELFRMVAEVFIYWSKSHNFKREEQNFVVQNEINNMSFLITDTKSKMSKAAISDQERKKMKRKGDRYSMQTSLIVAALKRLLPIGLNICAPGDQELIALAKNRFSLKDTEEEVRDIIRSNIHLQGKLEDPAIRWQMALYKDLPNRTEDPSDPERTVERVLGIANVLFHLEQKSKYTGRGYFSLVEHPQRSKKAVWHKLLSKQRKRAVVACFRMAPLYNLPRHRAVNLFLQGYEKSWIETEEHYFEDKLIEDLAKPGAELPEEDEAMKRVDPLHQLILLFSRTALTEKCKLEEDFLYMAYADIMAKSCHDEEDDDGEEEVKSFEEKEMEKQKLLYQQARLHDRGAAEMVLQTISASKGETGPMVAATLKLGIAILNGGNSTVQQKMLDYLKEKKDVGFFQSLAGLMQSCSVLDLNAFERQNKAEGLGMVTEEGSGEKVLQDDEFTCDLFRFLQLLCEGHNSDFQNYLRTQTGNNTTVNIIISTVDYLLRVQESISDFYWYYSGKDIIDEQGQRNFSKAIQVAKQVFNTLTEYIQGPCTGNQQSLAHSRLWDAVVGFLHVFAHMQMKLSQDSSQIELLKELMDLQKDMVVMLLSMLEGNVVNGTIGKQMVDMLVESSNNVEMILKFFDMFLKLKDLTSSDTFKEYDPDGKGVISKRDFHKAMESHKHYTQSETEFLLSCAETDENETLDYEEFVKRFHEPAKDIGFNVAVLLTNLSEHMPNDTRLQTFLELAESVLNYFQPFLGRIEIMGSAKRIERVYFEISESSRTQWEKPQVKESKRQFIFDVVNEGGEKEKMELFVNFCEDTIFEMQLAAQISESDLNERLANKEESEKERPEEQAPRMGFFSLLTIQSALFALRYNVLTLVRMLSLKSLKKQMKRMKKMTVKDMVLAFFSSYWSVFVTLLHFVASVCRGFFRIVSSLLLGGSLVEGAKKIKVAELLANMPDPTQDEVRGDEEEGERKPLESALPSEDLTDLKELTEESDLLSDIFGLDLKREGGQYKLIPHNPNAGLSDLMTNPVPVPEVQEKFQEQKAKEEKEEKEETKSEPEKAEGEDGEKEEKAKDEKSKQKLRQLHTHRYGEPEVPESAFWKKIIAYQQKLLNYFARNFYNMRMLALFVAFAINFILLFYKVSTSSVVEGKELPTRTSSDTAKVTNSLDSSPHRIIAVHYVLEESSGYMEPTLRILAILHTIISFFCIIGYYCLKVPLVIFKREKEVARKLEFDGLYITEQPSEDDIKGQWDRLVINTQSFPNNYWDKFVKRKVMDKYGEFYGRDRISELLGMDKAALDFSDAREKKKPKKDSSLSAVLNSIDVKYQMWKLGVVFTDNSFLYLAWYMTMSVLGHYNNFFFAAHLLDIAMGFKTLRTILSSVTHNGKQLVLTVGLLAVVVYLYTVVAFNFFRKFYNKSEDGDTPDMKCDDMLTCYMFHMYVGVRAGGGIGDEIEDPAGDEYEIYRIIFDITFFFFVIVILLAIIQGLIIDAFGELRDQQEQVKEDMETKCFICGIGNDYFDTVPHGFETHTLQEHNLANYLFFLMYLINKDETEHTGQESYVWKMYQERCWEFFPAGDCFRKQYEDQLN

Broadly, the IC50 is the concentration that gives 50% inhibition. `CCCCNc1ccc(C(=O)OCCN(CC)CC)c(OC)c1` [Compound 1]: the half-inhibitory concentration (IC50) is 0.035 µM on RyR2 [1], over 50 µM in the data set “in vitro [4]” and over 50 µM in “in vitro [5]”. Also, the “potency relative to the parent molecule tetracaine (inhibiting RyR2 activity / CRC)” value in the data set with RyR2 [2] is about 3000 times. Besides, the “level at which arrhythmias are decreased in the whole animal” value with R176Q/+ mice (CPVT mice, whole animal level) is 2.5 µg/kg. Besides, in the data set on R176Q/+ mice (CPVT mouse model, versus flecainide), the “concentration with antiarrhythmic activity, as share of that of flecainide” value worked out at 0.1%. Also, the “arrhythmic development following pacing” value in the data set with R176Q/+ mice (R176Q/+ mice, cardiac pacing, ECG (FIG. 2)) is given as “protected from arrhythmic development following pacing”. In addition, in the data set with R176Q/+ mice (injected in the tail of the mouse), the “time to inhibition of arrhythmias” value is at most 10 min. Moreover, the “concentration that suppressed ventricular tachycardia, as share of that of K201 (JTV519)” value in the data set on R176Q/+ mice (versus K201 in a similar mouse model) is given as “approximately 0.5%”. The “ATPase activity of SERCA2” value on SERCA2 (1 μM), at SERCA2 (10 μM) and at SERCA2 (50 μM) was “unaffected” throughout. Further, in data set [3], the “effect on the length of the AP” value is recorded as “No indication has been observed that Compound 1 has any effect on the length of the AP”.
In the case of `CCCCNc1cc(OC)c(C(=O)OCCN(CC)CC)cc1Cl` [Compound 2], the IC50 at RyR2 [1] is 0.011 µM; in “in vitro [4]”, over 50 µM; in “in vitro [5]”, over 50 µM.
On to `CCCCNc1ccc(C(=O)O)cc1N(CCCC)CCCC` [Compound 3], for which the IC50 was 0.5 µM at RyR2 [1], over 50 µM in “in vitro [4]” and over 50 µM in “in vitro [5]”.
As for `CCCCNc1ccc(OC(C)=O)cc1C` [Compound 4], at RyR2 [1], the IC50 came out at 0.63 µM.
As for `CCCCNc1ccc(C(=O)OCCNCC)cc1C` [Compound 5], the IC50 is 0.8 µM at RyR2 [1], over 50 µM in “in vitro [4]” and over 50 µM in “in vitro [5]”.
In the case of `CCCCNc1ccc(C(=O)OCCN(C)C)cc1.Cl` [Tetracaine], the “concentration at which the RyR is inhibited” value on RyR was about 150 µM. Further, the IC50 in “Cytotoxicity in HepG2” and in the data set “Cytotoxicity in HEK293” was over 50 µM in each case.
